Where two headings read alike, the source gives them in different places.
How the values were obtained:
[1] = target: T1, hRIPK1 (aa 1-375) fusion protein (Homo sapiens, UniProt Q13546); experiment: ADP-Glo kinase assay, RIPK1 autophosphorylation; format: biochemical
T1 construct: hRIPK1 (aa 1-375) fusion protein
T1 sequence (Q13546 1-375): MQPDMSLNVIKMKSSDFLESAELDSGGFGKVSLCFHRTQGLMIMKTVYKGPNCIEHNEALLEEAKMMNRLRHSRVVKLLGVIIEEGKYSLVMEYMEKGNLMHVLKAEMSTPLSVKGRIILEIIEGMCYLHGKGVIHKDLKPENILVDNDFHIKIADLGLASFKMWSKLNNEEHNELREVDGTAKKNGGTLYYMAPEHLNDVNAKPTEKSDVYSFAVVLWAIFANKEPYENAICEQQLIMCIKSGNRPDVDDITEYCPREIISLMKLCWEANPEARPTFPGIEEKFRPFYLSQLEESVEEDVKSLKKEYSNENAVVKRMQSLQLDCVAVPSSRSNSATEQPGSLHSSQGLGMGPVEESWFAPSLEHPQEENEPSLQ

U937 cells [2] = experiment: Cellular assay in U937 cells on cell death (necroptosis), TNFα/zVAD.fmk; format: cell-based; settings: Homo sapiens
Summary of the method: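 U937 cells with 100 ng/ml TNFα plus 50 μM zVAD.fmk (pre-addition suspension levels) received 10 compound concentrations (10 μM–0.26 nM or 1 μM–0.07 nM) for 18–24 h at 37 °C. Live cells were read by MTS formazan absorbance at 490 nm after 4 h. % inhibition is relative to the maximal value without TNFα/zVAD.fmk.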

[3] = Pharmacokinetic studies in mice, oral application; format: in vivo; settings: male, C57BL/6, brain / plasma, mouse
Procedure: Pharmacokinetic Studies in Mice
A suspension of the respective test articles (30 mg/kg, 10 ml/kg, 3 mg/ml) was prepared in 0.6% methyl cellulose (MC) by thorough mixing of the fine solid with the freshly made and filtered MC solution and administered to 24 non-fasted male C57BL/6 mice (20-25 g) by gavage. Terminal blood sampling (with the addition of K2-EDTA) was performed at 0.25, 0.5, 1, 2, 4, 6, 8 and 24 h post admin. Plasma was generated by centrifugation and deep-frozen (−20° C.). In addition, after 2 h, brain and liver were removed from the respective 3 mice. Additional plasma was collected from terminal blood. The organs were pooled, homogenized and the homogenate extracted with an acetonitrile-water mixture prior to measurement by HPLC-MS/MS. The brain/plasma ratio was determined at 2 h by dividing the brain concentration at 2 h through the respective value for the plasma concentration at 2 h.
Ex. 004: 21 mice were used in the study, without the 6 h sampling time. The same study design was applied.
A suspension of the respective test articles (30 mg/kg, 10 ml/kg, 3 mg/ml) was prepared in freshly prepared and filtered 0.6% methyl cellulose solution by wet-milling using Retsch MM 301 mixer mill (10 min, room temperature) and administered to 6 non-fasted male C57BL/6 mice (20-25 g) by gavage. Serial sampling of blood (with the addition of K3-EDTA) was performed at 0.25, 0.5, 1, 2, 4, 6, 8 and 24 h post admin. The blood samples were diluted (10 μl blood were added to a mixture of 90 μl 25% acetonitrile in water) and deep-frozen (−20° C.). After 2 h, 3 of the 6 animals were sacrificed and brain and liver taken off. Additional plasma was prepared from terminal blood. The organs were homogenized and the homogenate extracted with an acetonitrile-water mixture prior to measurement by HPLC-MS/MS. The brain/plasma ratio was determined at 2 h by dividing the brain concentration at 2 h through the respective value for the plasma concentration at 2 h.

[4] = monkeys, doses ≥100 mg/kg; cited from earlier work
U937 cells [5] = settings: Comparator table 5; data from P.A. Harris et al. J Med Chem 2019, 62, 5096; cited from earlier work
[6] = Pharmacokinetic studies in mice, intravenous application with non-serial sampling; format: in vivo
Procedure: Intravenous Application with Non-Serial Sampling Compound K
A solution of the respective test articles (3 mg/kg, 5 mL/kg, 0.6 mg/mL) was prepared by dissolving the solids in 7.5% N-Methyl pyrrolidon followed by addition of 60% PEG200 and 32.5% water for injection. Intravenous administration to 24 (3×8, groups per time) non-fasted male C57BL/6 mice (20-25 g) followed immediately after preparation. Terminal blood sampling (with the addition of K2-EDTA) was performed at 0.083, 0.25, 0.5, 1, 2, 4, 8 and 24 h post admin. Plasma was generated by centrifugation and deep-frozen (−20° C.). In addition, brain and liver were removed from all animals. The organs were pooled per time group, homogenized and the homogenate extracted with an acetonitrile-water mixture prior to measurement by HPLC-MS/MS. The brain/plasma ratio was determined by dividing the brain concentration through the respective value for the plasma concentration at the same sampling time.

[7] = Intravenous application to cynomolgus monkeys, side effects and histopathology; format: in vivo, cynomolgus monkey; settings: 1 mg/kg, i.v.
[8] = U-937, Comparator table 5, read-out: U937 IC50 (uM) Mean
[9] = 2 h, oral 30 mg/kg, read-out: Mouse PK brain/blood ratio
[10] = U-937, Table 2, read-out: U937 IC50

With `N#Cc1cc(N2CCC(C(=O)N3OCC[C@H]3c3cc(F)cc(F)c3)CC2)ncn1` [A, reference compound] the IC50 ([1]; Comparator table 5) was 12 nM, the IC50 (U937 cells [2]; [8]) was 0.003 µM and the Kp at 2 h [3, 9] was 0.82.

For `NC(=O)c1cc(N2CCC(C(=O)N3OCC[C@H]3c3cc(F)cc(F)c3)CC2)ncn1` [D, reference compound], the IC50 ([1]; Comparator table 5) was 10 nM, the IC50 (U937 cells [2]; [8]) was 0.004 µM and the Kp at 2 h [3, 9] was 1.1.

Molecule `N#Cc1cc(N2CCC(C(=O)N3N=CC[C@H]3c3cc(F)cc(F)c3)CC2)ncn1` [G, reference compound] has an IC50 (U937 cells [2]; [8]) of 0.002 µM and a Kp at 2 h [3, 9] of 1.5.

For `CN1C(=O)[C@@H](NC(=O)c2nnc(Cc3ccccc3)[nH]2)COc2ccccc21` [GSK2982772], the central side effects [4] is listed as “irregular gait and uncoordinated movement”.

For `CC(C)(C)C(=O)N1N=CC[C@H]1c1cc(F)cc(F)c1` [H], the IC50 (U937 cells [5]) is given as 0.006 µM.

For `COc1cc(N2CCC(C(=O)N3OCC[C@H]3c3cc(F)cc(F)c3)CC2)ncn1` [K, reference compound], the IC50 ([1]; Comparator table 5) was 18 nM, the IC50 (U937 cells [2]; [8]) was 0.01 µM and the “Mouse PK brain/blood ratio” value ([6]; 15 min, i.v. 3 mg/kg) was 2.1 (15 min i.v. 3 mg/kg).

`COc1cc(N2CCC(C(=O)N3OCC[C@H]3c3cc(F)cc(F)c3)CC2)ncn1` [comparator compound K, [1-(6-Methoxypyrimidin-4-yl)-4-piperidyl]-[(3S)-3-(3,5-difluorophenyl)isoxazolidin-2-yl]methanone] gave a Kp at 2 h ([3]; 2 h after oral application of 30 mg/kg, read-out: brain/plasma ratio) of 1.6, a Kp at 15 min ([6]; male, C57BL/6, brain / plasma, iv, mouse, 15 min after i.v. application of 3 mg/kg, read-out: brain/blood ratio) of 2.1 and a concentration at 15 min ([6]; male, C57BL/6, brain, iv, mouse, 15 min after i.v. application of 3 mg/kg, read-out: brain levels) of 1580 ng/mL. The histopathological examination [7] was “bilateral and symmetrical lesions of brain necrosis” and the side effects [7] was “severe side effects”.

Work on `N#Cc1cncc([C@@H]2CCON2C(=O)C2CCN(c3cc(F)ncn3)CC2)c1` [compound 169, (S)-5-(2-(1-(6-fluoropyrimidin-4-yl)piperidine-4-carbonyl)isoxazolidin-3-yl)nicotinonitrile] yielded an IC50 ([1]; Table 1) of 23.4 nM and an IC50 (U937 cells [2]; [10]) of 0.119 µM.

In the case of `N#Cc1cc([C@@H]2CCON2C(=O)C2CCN(c3nccc(C(N)=O)n3)CC2)cnn1` [compound 179, 2-[4-[(3S)-3-(6-cyanopyridazin-4-yl)isoxazolidine-2-carbonyl]-1-piperidyl]pyrimidine-4-carboxamide], the IC50 ([1]; Table 1) is reported as 173 nM and the IC50 (U937 cells [2]; [10]) is reported as 2.03 µM.

Work on `Cc1ccc([C@@H]2CCON2C(=O)C2CCN(c3ncc(C)c(C(N)=O)n3)CC2)s1` [compound 182, 5-methyl-2-[4-[(3S)-3-(5-methyl-2-thienyl)isoxazolidine-2-carbonyl]-1-piperidyl]pyrimidine-4-carboxamide] yielded an IC50 ([1]; Table 1) of 15.6 nM and an IC50 (U937 cells [2]; [10]) of 0.00701 µM.

In the case of `Cc1ccc([C@@H]2CCON2C(=O)C2CCN(c3ncnc(C(N)=O)c3F)CC2)cn1` [compound 187, 5-fluoro-6-[4-[(3S)-3-(6-methyl-3-pyridyl)isoxazolidine-2-carbonyl]-1-piperidyl]pyrimidine-4-carboxamide; trifluoroacetic acid], the IC50 ([1]; Table 1) is reported as 65.9 nM and the IC50 (U937 cells [2]; [10]) is reported as 0.321 µM.

Source: patent US12655139B2, “Isoxazolidines as RIPK1 inhibitors and use thereof” (SANOFI, priority 2020, dated 2026)
